From US9321772B2, “Substituted pyrazolo[3,4-D]pyrimidines and uses thereof” (The Regents of the University of California, priority 2011, dated 2016)
“Also recorded” adds a separate entry of the source.

Assays:
Src = Src (Homo sapiens, UniProt P12931); assay: In vitro kinase assay, Src; type: biochemical; settings: in vitro kinase profile, 1 μM
Experimental: (§1) Using in vitro kinase assays we tested AD57, AD36, and AD58 at 1 μM for activity against approximately one-half of the human kinome (FIG. 1E): 165 Ser/Thr kinases, 91 Tyr kinases, and 10 PI kinases were assayed, totaling 266 kinases (244 distinct kinases plus 22 mutant isoforms; see FIG. 6A-6C, FIG. 7A-7F, and FIG. 8 for measured inhibition values).
(§2) At least three major pathways are required for dRet^MEN2B-mediated transformation: Ras, Src, and glucose metabolism/PI3K (FIG. 3A; Ref (Read, R. D. et al., Genetics, 2005. 171(3): p. 1057-81)). We utilized in vitro kinase assays to assess compound activity against relevant kinases from each of these pathways, specifically Ret, B-Raf, Src, Tor, and S6K (FIG. 3B).

[1] = system: MEN2A (TT) thyroid cancer cells; assay: Immunoblot analysis of drug-treated TT cells; type: cell-based, human; settings: 1 hour of treatment
Experimental: (§3) FIG. 19. […] MEN2A (TT) and MEN2B (MZ) thyroid cancer cells were treated with the indicated drugs for 3 days at a final concentration of 2 μM. Cell lystates were immunoblotted for protein markers of apoptosis. Vandetanib (vand.) was included for comparison.
(§4) FIG. 20A-20B. […] FIG. 20A. MEN2B (MZ) and FIG. 20B. MEN2A (TT) thyroid cancer cells were treated with the indicated concentrations of drug. Following 1 hour of treatment, cells were harvested and lysates prepared for immunoblotting to detect the indicated proteins. VD=vandetanib; SF=sorafenib.

wild type flies = assay: Viability of drug treated wild-type flies; type: in vivo, Drosophila
Source text: FIG. 4B. Decreased viability of wild type flies by AD58 was mitigated by co-administration of Sorafenib or AZD6244.
FIG. 15. Percent viability of control and drug treated wild-type flies (WT). The proportion of WT pupae and adults that survived from the total number of embryos (indicated in brackets below) are represented as column graphs. (Pupae left, Adults right)

B-Raf = B-Raf (Homo sapiens, UniProt P15056); assay: In vitro kinase assay, B-Raf; type: biochemical; settings: in vitro kinase profile, 1 μM
B-Raf, sequence (P15056 whole entry): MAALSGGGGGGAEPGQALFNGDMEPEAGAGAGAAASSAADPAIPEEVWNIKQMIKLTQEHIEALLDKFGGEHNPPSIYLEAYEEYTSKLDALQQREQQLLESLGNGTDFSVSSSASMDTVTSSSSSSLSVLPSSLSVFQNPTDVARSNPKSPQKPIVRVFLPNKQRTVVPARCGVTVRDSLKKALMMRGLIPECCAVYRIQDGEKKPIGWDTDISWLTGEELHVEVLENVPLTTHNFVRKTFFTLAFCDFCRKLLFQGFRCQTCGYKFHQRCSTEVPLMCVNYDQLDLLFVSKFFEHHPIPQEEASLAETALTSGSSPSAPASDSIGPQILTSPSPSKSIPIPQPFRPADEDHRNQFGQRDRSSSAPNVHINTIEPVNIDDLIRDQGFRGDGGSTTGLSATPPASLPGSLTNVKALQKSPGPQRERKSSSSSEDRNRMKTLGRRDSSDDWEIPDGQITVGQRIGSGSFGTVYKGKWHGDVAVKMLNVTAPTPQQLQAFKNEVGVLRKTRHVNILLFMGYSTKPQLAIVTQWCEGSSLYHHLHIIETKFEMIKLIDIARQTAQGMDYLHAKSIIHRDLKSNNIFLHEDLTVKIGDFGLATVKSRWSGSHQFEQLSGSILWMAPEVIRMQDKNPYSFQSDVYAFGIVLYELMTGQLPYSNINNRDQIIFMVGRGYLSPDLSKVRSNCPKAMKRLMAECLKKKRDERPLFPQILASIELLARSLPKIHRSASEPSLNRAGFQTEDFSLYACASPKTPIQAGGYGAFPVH
Experimental: as §1, §2

[2] = system: ptc>dRet^MEN2B wing cells; assay: Wing-based assay for transformation and cell migration (ptc>dRetMEN2B); type: in vivo, Drosophila
Source text: FIG. 4E. Quantification of ptc>dRet^MEN2B phenotypes. Invasion was established by scoring for single/groups of GFP-labeled cells that relocated away from the ptc boundary (FIG. 4C, asterisks). Basal migration was scored as indentation of the apical surface (see FIG. 2B, arrows). Proliferation was scored as significant widening of the ptc boundary. The number of wings analyzed under each condition is indicated in brackets.
We previously developed a wing-based assay for transformation and cell migration that we utilized to explore Ras- and Src-based tumorigenesis (Vidal, M., D. E. Larson, and R. L. Cagan, Dev Cell, 2006. 10(1): p. 33-44). In this assay, the ptc-GAL4 driver directed oncogene expression in a stripe along the anterior-posterior axis; oncogene-based transformation led to over-proliferation, epithelial-to-mesenchymal transition (EMT), and cell migration away from the ptc domain.

[3] = system: MEN2B (MZ) thyroid cancer cells; assay: Immunoblot analysis of drug-treated MZ cells; type: cell-based, human; settings: 1 hour of treatment
Experimental: as §3, §4

ptc>dRet^MEN2B flies = assay: Drosophila ptc>dRetMEN2B viability assay; type: in vivo; settings: for rescue of ptc>dRetMEN2B viability (pupae, adults), in words: oral administration, drug mixed into food
Source text: FIG. 1A. Suppression of Ret^MEN2B-induced developmental block and whole animal toxicity were scored based on number of embryos (n) that survived as pupae (x) and adults (y). Drugs were mixed into food and fed to flies starting at larval stages.
FIG. 1B. Percent viability of control or drug treated flies determined for pupae (x/n) and adults (y/n).
Described herein is a Drosophila MEN2B model in which an intracellular mutation in the Drosophila Ret ortholog (dRet) was targeted to the eye (Read, R. D. et al., Genetics, 2005. 171(3): p. 1057-81). […] The screen is conducted in developing drosophila embryos. Under normal circumstances, drosophila embryos pass through four developmental steps: embryo→larvae→pupae→adult. […] We calibrated the ptc>dRetMEN2B assay to permit 50% survival to pupariation and 0% survival to adulthood. Mutated forms of RET are believed to be causative in human thyroid cancers including multiple endocrine neoplasia types 2A and 2B (MEN2A and MEN2B). The screen identifies small molecules that (a) suppress the toxicity induced by oncogenic RET and (b) allow flies to develop to functional adults. […] 64(19): p. 7099-109; Sun, L. et al., J Med Chem, 2003. 46(7): p.

[4] = system: 765>dRet^MEN2B wings (Ras/Erk pathway activity); assay: Adult wing vein pattern assay (765>dRetMEN2B); type: in vivo, Drosophila; settings: drug fed flies
Source text: The adult Drosophila wing consists of a stereotypical pattern of […] and two cross-veins; increased Ras/Erk pathway activity leads to ectopic veins (e.g., Refs. (Sawamoto, K. et al., Dev Biol, 1996. 178(1): p. 13-22; Guichard, A. et al., Development, 1999. 126(12): p. 2663-76)). Expression of oncogenic dRet throughout the developing wing (765>dRet^MEN2B) led to disruption of the overall adult wing pattern including ectopic wing veins (FIG. 3D). Reducing gene dosage of the erk ortholog rolled (765>dRet^MEN2B erk−/+) suppressed these phenotypes (FIG. 3D), confirming that wing vein formation is dependent on Ras/Erk activity.

S6K = S6K (Homo sapiens, UniProt P23443); assay: In vitro kinase assay, S6K; type: biochemical; settings: in vitro kinase profile, 1 μM
S6K, sequence (P23443 whole entry): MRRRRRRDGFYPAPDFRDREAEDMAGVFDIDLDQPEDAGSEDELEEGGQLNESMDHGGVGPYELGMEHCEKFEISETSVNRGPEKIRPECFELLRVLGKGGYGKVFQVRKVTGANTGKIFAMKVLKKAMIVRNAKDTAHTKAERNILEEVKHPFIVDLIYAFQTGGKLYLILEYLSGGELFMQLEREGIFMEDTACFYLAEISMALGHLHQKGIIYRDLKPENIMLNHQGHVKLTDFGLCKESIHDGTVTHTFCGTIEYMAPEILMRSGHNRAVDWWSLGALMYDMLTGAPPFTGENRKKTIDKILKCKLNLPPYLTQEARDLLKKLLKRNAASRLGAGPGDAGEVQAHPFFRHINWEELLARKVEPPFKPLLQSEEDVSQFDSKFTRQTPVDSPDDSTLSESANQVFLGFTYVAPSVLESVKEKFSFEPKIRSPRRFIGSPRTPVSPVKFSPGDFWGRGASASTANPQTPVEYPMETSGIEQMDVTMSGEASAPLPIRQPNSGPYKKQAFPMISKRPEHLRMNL
Experimental: as §1, §2

mTor = mTor (Homo sapiens, UniProt P42345); assay: In vitro kinase assay, mTor; type: biochemical; settings: in vitro kinase profile, 1 μM
Experimental: as §1, §2

Ret kinase domain = target: T1, Ret kinase domain (Homo sapiens, UniProt P07949); assay: In vitro kinase assay, Ret; type: biochemical; settings: in vitro kinase profile, 1 μM
T1 construct: determined against a purified form of the Ret kinase domain
T1 sequence (P07949 724-1016 limits assumed): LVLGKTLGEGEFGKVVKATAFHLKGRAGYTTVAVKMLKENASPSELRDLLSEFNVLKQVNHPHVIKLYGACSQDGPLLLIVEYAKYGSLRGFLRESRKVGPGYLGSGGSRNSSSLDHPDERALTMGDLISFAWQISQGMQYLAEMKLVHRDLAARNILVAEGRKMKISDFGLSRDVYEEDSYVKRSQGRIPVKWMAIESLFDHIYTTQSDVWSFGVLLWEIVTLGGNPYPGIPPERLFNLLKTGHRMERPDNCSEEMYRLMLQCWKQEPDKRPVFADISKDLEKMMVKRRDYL
Experimental: FIG. 1D. […] Half maximal inhibitory concentrations (IC50) were determined against a purified form of the Ret kinase domain.
as §1, §2

[5] = system: MZ-CRC-1 (MEN2B) cancer cell line; assay: MZ-CRC-1 cell viability (MTT assay); type: cell-based, human
[6] = system: TT cell tumors in athymic nu/nu mice; assay: MEN2 (TT) mouse xenograft model; type: in vivo; settings: nude mice transplanted with TT cells; oral gavage; median per group
Experimental: FIG. 11. […] TT thyroid cancer cells were implanted into athymic nu/nu mice subcutaneously into the right flank under the conditions listed. Upon establishment of tumors, drugs were administered by oral gavage (5 days ON/2 days OFF schedule). Tumors were measured using digital calipers. […] VD=vandetanib.
FIG. 18A-18D. […] FIG. 18A. MEN2B (MZ) thyroid cancer cells were treated with the indicated concentrations of each inhibitor (7 days) and cell viability was quantitated by MTT assay. FIG. 18B. MEN2A (TT) thyroid cancer cells were treated with the indicated concentrations of each inhibitor (7 days) and cell viability was quantitated by MTT assay. FIG. 18C. […] Change in tumor volume was calculated per mouse. Values shown are the median percent change per group. 20 and 10 animals for vehicle and drug treated mice, respectively, were analyzed. FIG. 18D. Body weight measurements of AD80, Vandetanib (VD) and vehicle treated nude mice transplanted with TT cells. Values shown are the median of 20 and 10 animals for vehicle and drug treated mice, respectively.
TT-based tumors were grown for 46 days in athymic nu/nu male mice prior to drug administration.

Src, sequence (P12931 whole entry, canonical isoform): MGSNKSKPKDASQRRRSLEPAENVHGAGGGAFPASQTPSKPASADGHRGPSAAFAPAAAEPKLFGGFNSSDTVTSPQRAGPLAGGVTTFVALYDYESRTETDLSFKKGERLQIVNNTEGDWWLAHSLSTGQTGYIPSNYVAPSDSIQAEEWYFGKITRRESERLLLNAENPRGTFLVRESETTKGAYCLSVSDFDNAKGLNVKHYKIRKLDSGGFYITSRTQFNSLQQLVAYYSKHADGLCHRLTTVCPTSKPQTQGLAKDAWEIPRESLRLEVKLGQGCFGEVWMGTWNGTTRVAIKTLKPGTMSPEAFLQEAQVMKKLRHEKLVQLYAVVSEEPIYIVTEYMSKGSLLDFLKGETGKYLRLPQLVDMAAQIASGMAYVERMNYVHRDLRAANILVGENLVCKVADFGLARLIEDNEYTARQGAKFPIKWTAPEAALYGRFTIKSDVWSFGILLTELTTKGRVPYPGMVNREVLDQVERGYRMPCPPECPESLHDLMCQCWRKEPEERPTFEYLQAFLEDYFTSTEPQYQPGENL

For `CC(C)n1nc(-c2ccc(NC(=O)Nc3ccccc3)cc2)c2c(N)ncnc21` [AD58], the “Src inhibition, in words” value (Src) was “strongly inhibited”, the “phospho-Ret and downstream biomarkers” value [1] was “potent inhibitors” and the whole animal toxicity (wild type flies; fed to ptc>dRetMEN2B and wild type flies) was “significant whole animal toxicity”. For the same molecule, the “B-Raf (Raf) inhibition, in words” value (B-Raf) was “much weaker inhibitor”, the “invasion and migration of dRetMEN2B-transformed cells” value ([2]; co-treatment AD58 plus Sorafenib) was “significant suppression of invasion and migration; also recorded: blocked” and the “basal phospho-Src in wing epithelium” value ([2]; oral administration) was “prevented basal phospho-Src accumulation”. The “suppression of dRetMEN2B-induced proliferation, EMT, invasion/basal migration” value (“suppression … invasion/basal migration” below) ([2]; oral administration) was “failed to prevent invasion/basal migration and not and did not suppress migration”, the “phospho-Ret and downstream biomarkers” value [3] was “potent inhibitors” and the “rescue of ptc>dRetMEN2B viability (pupae, adults), in words” value (“rescue of ptc>dRetMEN2B viability” below) (ptc>dRet^MEN2B flies) was “significant toxicity without detectable efficacy”. For the same molecule, the “effect of reducing dTor on drug efficacy/toxicity” value (ptc>dRet^MEN2B flies; ptc>dRetMEN2B dTor-/+) was “enhanced the toxicity”, the “effect of reducing erk gene dosage on drug efficacy in viability assay” value (ptc>dRet^MEN2B flies; ptc>dRetMEN2B, erk-/+) was “considerably enhanced the efficacy” and the “ectopic wing vein / wing pattern phenotype” value [4] was “slightly but consistently enhanced”. The “S6K inhibition, in words” value (S6K) was “much weaker inhibitor” and the “mTor inhibition, in words” value (mTor) was “more potent; also recorded: stronger inhibitor”.

With `CC(C)n1nc(-c2ccc(NC(=O)Nc3ccc(Cl)c(C(F)(F)F)c3)cc2)c2c(N)ncnc21` [AD81] the “Src inhibition, in words” value (Src) was “inhibited”, the “B-Raf (Raf) inhibition, in words” value (B-Raf) was “inhibited” and the “suppression … invasion/basal migration” value ([2]; oral administration) was “significantly improved suppression”. For the same molecule, the “Ret inhibition, in words” value (Ret kinase domain) was “inhibited”, the “rescue of ptc>dRetMEN2B viability” value (ptc>dRet^MEN2B flies) was “improved rescue relative to AD57” and the “S6K inhibition, in words” value (S6K) was “inhibited”. For the same molecule, the “mTor inhibition, in words” value (mTor) was “not and greatly reduced mTor activity and lack significant inhibitory activity”.

In the case of `Cn1cnc2c(F)c(Nc3ccc(Br)cc3Cl)c(C(=O)NOCCO)cc21` [AZD6244, reference compound], the “AD58-mediated toxicity in wild type flies on co-feeding with the named drug” value (wild type flies; in vivo) is reported as “almost completely suppressed” and the “rescue of ptc>dRetMEN2B viability” value (ptc>dRet^MEN2B flies) is reported as “did not rescue viability”.

In the case of `Nc1ncnc2c1c(-c1cnc3[nH]ccc3c1)nn2C1CCCC1` [PP121, reference compound], the “suppression … invasion/basal migration” value ([2]; oral administration) is reported as “limited ability to significantly rescue the transformation phenotype and not” and the “inhibition of MZ-CRC-1 cell viability / proliferation, in words” value [5] is reported as “levels approaching AD57”.

With `CNC(=O)c1cc(Oc2ccc(NC(=O)Nc3ccc(Cl)c(C(F)(F)F)c3)cc2)ccn1` [Sorafenib, reference compound] the “AD58-mediated toxicity in wild type flies on co-feeding with the named drug” value (wild type flies; co-feeding with AD58) was “almost completely suppressed”, the “suppression … invasion/basal migration” value ([2]; oral administration) was “measurable rescue that was nonetheless less than AD57; also recorded: did not suppress migration” and the “notum, scutellum and cuticle defects of ptc>dRetMEN2B adults” value (ptc>dRet^MEN2B flies; drug fed flies) was “weakly suppressed; also recorded: some cuticle defects”. The “rescue of ptc>dRetMEN2B viability” value (ptc>dRet^MEN2B flies) was “stronger; also recorded: rescued some animals to adulthood but did not significantly increase the proportion that developed to pupariation”.

For `COc1cc2c(Nc3ccc(Br)cc3F)ncnc2cc1OCC1CCN(C)CC1` [Vandetanib, reference compound], the “reduction of tumor progression relative to vehicle” value [6] was 1.9 fold.
